Experimental data from patent US20260216349A1, “STABILIZED BIOPOLYMER COMPOSITION, THEIR MANUFACTURE AND USE” (BASE SE, priority 2023, published 2026).

Details: pH 7.4
Method: A 10% (m/m) aqueous solution of the test substances (butronics as well as reference materials Kolliphor EL and HS15) is prepared in phosphate buffer pH 7.4. For each test substance and reference three 5 ml brown glass ampoules with screw caps are filled with 5 g of the prepared aqueous solution.
The respective API (as for example Fenofibrate/Itraconazole/Nilotinib) to be analyzed is then added (about 30 mg-500 mg per 5 g of 10% test substance solution, enough that the added powder doesn't dissolve anymore) in order to obtain a supersaturated solution.
After stirring for 72 h at room temperature, each sample is filtered through a 0.22 μm PVDF filter and the concentration of the respective API in the filtrate is quantified by HPLC.
The average of the 3 replicates per API is calculated and the obtained concentrations are put in relation to Kolliphor EL, which is set to 100%.

- Solubilization of small molecules (mean value in %): 96%
Substance: POE sorbitan monooleate [Polysorbate 80]
